Laboratory results: patent US20210228500A1, “CELLULAR RETINOID BINDING PROTEIN ANTAGONISTS AND USES THEREOF” (CASE WESTERN RESRVE UNIVERSITY, priority 2018, published 2021)

How the values were obtained:
CRBP1 [1] = target: T1, CRBP1 (Homo sapiens, UniProt P09455); assay: Fluorescence binding assay: atROL displacement from holo-CRBP1 (FRET); details: for binding to / interaction with CRBP1: 0-10 μM range
T1 construct: made in house
T1 sequence (P09455 1-135): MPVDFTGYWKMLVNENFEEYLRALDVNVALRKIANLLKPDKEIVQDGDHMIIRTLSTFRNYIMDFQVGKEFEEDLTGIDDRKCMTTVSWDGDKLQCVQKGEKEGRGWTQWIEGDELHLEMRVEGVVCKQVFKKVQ
Protocol: Human apo-CRBP1 was expressed and purified as described by Silvaroli et al. (J Biol Chem. 2016, 15; 291(16)) without any further modification to the established protocol.
To prepare holo-CRBP1, 3 mg of purified apoprotein was incubated for 15 min on ice with 2 molar excess of atROL (Toronto Research Chemicals) in 10 mM Tris-HCl, pH 8.0, 5% glycerol (v/v). The retinoid was delivered in acetonitrile (<1%, v/v). To remove excess of atROL, the protein solution was diluted 10× with 10 mM Tris-HCl, pH 8.0, centrifuged (36 000 g, 20 min, 4° C.) and loaded onto a 5 mL HiTrap Q HP column. Holo-CRBP1 was eluted from the column in conditions described in CRBP1 purification method. The efficiency of formation of holo-CRBP1 was examined by recording UV/vis spectrum of the repurified protein.
The apparent affinity of nonretinoid ligands was evaluated by monitoring changes in the fluorescence of holo-CRBP1. In the atROL bound form, the protein excited at 285 nm emitted fluorescence at 350 and 480 nm due to FRET between the protein scaffold and the retinoid moiety (FIG. 2A). Replacement of atROL in the binding site by tested ligands leads to disruption of FRET and consequently an increase in the fluorescence intensity at 350 nm with concomitant diminishing signal at 480 nm. All fluorescence measurements were performed using a PerkinElmer Life Sciences LS55 spectrofluorometer. The titrations were performed at 25° C. in 67 mM phosphate-buffered saline buffer, pH 7.4, containing 5% glycerol (v/v) by adding an increasing amount of an examined compound delivered in acetonitrile. […] All fluorescence spectra were corrected for the inner filter effect. The Ki values were calculated by fitting intensities of the protein fluorescence at the maximum emission (350 nm) or the intensity of retinoid fluorescence at 480 nm to the saturation single ligand-binding model. The data fitting and calculations of the Ki values were performed using SigmaPlot 11 software package (Systat Software).

CRBP1 [2] = target: T1, CRBP1; details: read-out: affinity for atROL; cited from earlier work
CRBP4 = target: T2, CRBP4 (Homo sapiens, UniProt Q96R05); details: read-out: affinity for atROL; cited from earlier work
T2 construct: thrombin cut site (residual residues after digestion) (C); 6x histidine tag (C, cleaved yes); made in house; host or cells: E. coli BL21 (DE3) (as for CRBP2)
T2 sequence (Q96R05 1-134): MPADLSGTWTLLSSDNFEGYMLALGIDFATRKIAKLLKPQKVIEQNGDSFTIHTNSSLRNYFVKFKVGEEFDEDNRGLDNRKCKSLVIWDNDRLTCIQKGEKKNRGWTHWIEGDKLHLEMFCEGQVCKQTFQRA

[3] = fluorescence atROL-replacing assay

With `C=C(C)[C@@H]1CCC(C)=C[C@H]1c1c(OC)cc(C)cc1OC` [0-1918, 1,3-dimethoxy-5-methyl-2-[(1R,6R)-3-methyl-6-prop-1-en-2-ylcyclohex-2-en-1-yl]benzene] the “binding to / interaction with CRBP1” value (CRBP1 [1]; [3]) was “abolished the meaningful binding”.

For `CC1=C(/C=C/C(C)=C/C=C/C(C)=C/CO)C(C)(C)CCC1` [atROL, all-trans-retinol], the Ki (CRBP1 [1]; reverse experiment: CRBP1 loaded with abn-CBD titrated with atROL, read-out: Ki value for replacing abn-CBD by vitamin A) is listed as roughly 34 nM, the Kd (CRBP1 [2]) is listed as less than 1 nM and the Kd (CRBP4) is listed as 200 nM.

In the case of `C=C(C)[C@H]1CC=C(C)CC1` [limonene, reference compound], the “binding to / interaction with CRBP1” value (CRBP1 [1]; [3]) is reported as “did not observe limonene interacting”.

With `C=C(C)[C@@H]1CCC(C)=C[C@H]1c1c(C)cc(O)cc1O` [abn-CBDO, 5-methyl-4-[(1R,6R)-3-methyl-6-prop-1-en-2-ylcyclohex-2-en-1-yl]benzene-1,3-diol] the “apparent affinity lowered compared with abn-CBD” value (CRBP1 [1]; fluorescence atROL-replacing assay, relative to abn-CBD) was 4.3 times.

For `C=C(C)[C@@H]1CCC(C)=CC1c1c(O)cc(C)cc1O` (stereo partly drawn) [CBDO, 5-methyl-2-[(6R)-3-methyl-6-prop-1-en-2-ylcyclohex-2-en-1-yl]benzene-1,3-diol], the “further increase of the Ki value” (CRBP1 [1]; fluorescence atROL-replacing assay, relative to abn-CBDO) was 6.3 fold.
